In PubChem BioAssay (NCI):
Values joined by “and” are separate entries in the source; they are usually repeats but may differ in a detail not shown here. Equal values may be shown once.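 Step 1: Grow cells in 96-well plates. Step 2: Expose to compound for 48 hours at 5 concentrations. Step 3: Interpolate endpoints linearly; if unreached, use highest concentration. GI50 marks 50% less growth. The concentration for full growth arrest is given as TGI.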

Assays:
Test in all cases: NCI anticancer screen, dose series, 48 h
CAKI-1 renal = test system: CAKI-1 renal
HCT-116 colon = test system: HCT-116 colon
HL-60(TB) leukemia = test system: HL-60(TB) leukemia
KM12 colon = test system: KM12 colon
OVCAR-8 ovarian = test system: OVCAR-8 ovarian
RPMI-8226 leukemia = test system: RPMI-8226 leukemia
SNB-19 CNS = test system: SNB-19 CNS
SNB-75 CNS = test system: SNB-75 CNS
SW-620 colon = test system: SW-620 colon
UACC-62 melanoma = test system: UACC-62 melanoma

Compound	TGI (CAKI-1 renal)	TGI (HCT-116 colon)	TGI (HL-60(TB) leukemia)	TGI (KM12 colon)	TGI (OVCAR-8 ovarian)	TGI (RPMI-8226 leukemia)	TGI (SNB-19 CNS)	TGI (SNB-75 CNS)	TGI (SW-620 colon)	TGI (UACC-62 melanoma)	GI50 (CAKI-1 renal)	GI50 (HCT-116 colon)	GI50 (HL-60(TB) leukemia)	GI50 (KM12 colon)	GI50 (OVCAR-8 ovarian)	GI50 (RPMI-8226 leukemia)	GI50 (SNB-19 CNS)	GI50 (SNB-75 CNS)	GI50 (SW-620 colon)	GI50 (UACC-62 melanoma)
COC(=O)c1cnc2nc(N3CCOCC3)[nH]n2c1=O	> 100 µM	> 100 µM	> 100 µM	> 100 µM	> 100 µM	> 100 µM	> 100 µM	> 100 µM	> 100 µM	> 100 µM										
O=C(Cn1ccnc1[N+](=O)[O-])N(CCO)CCO	> 1250 µM	> 1250 µM	> 1250 µM	> 1250 µM	> 1250 µM	250 µM and > 1250 µM	> 1250 µM	250 µM and > 1250 µM	> 1250 µM	> 250 µM and 1240 µM	> 1250 µM	> 1250 µM	> 1250 µM	> 1250 µM	> 1250 µM	> 1250 µM	> 1250 µM	182 µM	> 1250 µM	> 943 µM
CC(=O)[CH-]C(=O)c1ccccc1.CC(=O)[CH-]C(=O)c1ccccc1.[Nd+3].[OH-].[OH3+]	> 100 µM	> 100 µM	> 100 µM	> 100 µM	> 100 µM	> 100 µM	> 100 µM	> 100 µM	> 100 µM	> 100 µM	> 100 µM	> 100 µM	> 100 µM	> 100 µM	> 100 µM	> 100 µM	> 100 µM	60.5 µM	> 100 µM	> 100 µM
C[C@]12CC[C@H](O)CC1=CC[C@@H]1[C@@H]2CC[C@]2(C)C(=O)/C(=C/c3cccc(OCCCn4ccnc4)c3)C[C@@H]12	> 100 µM	30.2 µM	44.7 µM	> 100 µM	32.8 µM	31.6 µM	77.3 µM	38.4 µM	40.9 µM	30 µM	38.4 µM	15 µM	13.8 µM	34 µM	17.7 µM	10.1 µM	27 µM	19.7 µM	19.7 µM	13.1 µM
CS(=O)(=O)c1nccc(-c2c(-c3cccc(OCc4ccc(F)cc4)c3)nc3sccn23)n1	> 100 µM	> 100 µM	> 29.3 µM	7.61 µM	> 100 µM	> 51 µM	> 96.7 µM	> 83.1 µM	> 100 µM	> 100 µM	3.41 µM	5.65 µM	3.43 µM	2.95 µM	59.9 µM	5.16 µM	26 µM	> 39.5 µM	5.32 µM	17.5 µM
COc1ccc(-c2cc3c4c(nc5ccccc5c4c2)CC(c2cc(OC)c(OC)c(OC)c2)O3)cc1 (stereo not given)	3.06 µM	4.15 µM	> 100 µM	> 100 µM	> 100 µM	> 100 µM	12.8 µM	3.1 µM	> 100 µM	20.1 µM	1.52 µM	1.31 µM	> 100 µM	3.78 µM	2.71 µM	3.66 µM	3.3 µM	1.13 µM	2.63 µM	3.54 µM
CC1=CC[C@@H]2[C@@H](CC[C@@]2(C)O)C(C)(C)[C@H]1CC[C@@H]1[C@@]2(C)CCC(=O)C(C)(C)O[C@@H]2CC[C@]1(C)O	96.6 µM	42 µM	35 µM	29.6 µM	62.1 µM	51.1 µM	> 100 µM	> 100 µM	> 100 µM	34.9 µM										
O=S(=O)(c1cccc(C(F)(F)F)c1)N1c2ccccc2-n2cccc2C1c1cccnc1 (stereo not given)	> 100 µM	> 52 µM	28.3 µM	> 100 µM	> 100 µM	> 57.7 µM	> 72.9 µM	> 100 µM	> 60.4 µM	> 59.5 µM										
C=C1C(=O)O[C@H]2[C@H]1CC/C(COC(=O)OCCCCCOC(=O)OC/C1=C/CC[C@@]3(C)O[C@H]3[C@H]3OC(=O)C(=C)[C@@H]3CC1)=C\CC[C@@]1(C)O[C@@H]21	1.02 µM	0.5 µM	0.793 µM	3.31 µM	0.998 µM	1.47 µM	7.71 µM	2.5 µM	0.902 µM	3.05 µM	0.308 µM	0.174 µM	0.281 µM	1.51 µM	0.331 µM	0.359 µM	2.1 µM	1.11 µM	0.285 µM	1.28 µM
Brc1c[n+](Cc2ccc3ccccc3c2)cn1Cc1ccc2ccccc2c1	5.17 µM	2.49 µM	3.68 µM	3.28 µM	4.55 µM	3.06 µM	2.75 µM	3.03 µM	3.62 µM	2.58 µM	2.03 µM	1.21 µM	1.15 µM	1.67 µM	1.89 µM	1.02 µM	1.41 µM	1.34 µM	1.61 µM	1.24 µM
